Assay results taken from patent publication US20110190249A1, “THERAPEUTIC METHODS AND USES OF SAPOGENINS AND THEIR DERIVATIVES” (PHYTOPHARM PLC, priority 2002, published 2011).

Legend:
[1] = system: rat mesencephalic dopaminergic neurones; assay: Pre-treatment of dopaminergic neurones before MPP+ exposure (neuronal survival); type: cell-based; settings: pre-treatment 30 nM; MPP+ 2 μM; MPP+ alone 55 ± 3
Text: Smilagenin and sarsasapogenin prevent the neurodegeneration caused by exposure to the neurotoxin, 1-methyl-4-phenylpyridinium (MPP^+) in rat mesencephalic dopaminergic neurones; a model of Parkinson's disease in vitro.
Glial cell line-derived neurotrophic factor (GDNF) and brain-derived neurotrophic factor (BDNF), molecules that are involved in neuronal growth, were used as positive controls.

dopamine (D) 2 receptor = assay: Dopamine D2 receptor density in aged rats; type: in vivo, rat; settings: aged rats treated 3 months; aged untreated 153.8±40.5, young 200.6±50.9
Experimental: (§1) Aged Sprague-Dawley rats aged were divided into different groups, one control and groups treated for 2-3 months with either sarsasapogenin, episarsasapogenin cathylate or smilagenin (18 mg kg^−1 day^−1, n=10). A control group (n=14) of untreated young rats was also included in the study. The daily dose of drug was mixed in a minimum amount of food and was administered every morning separately to each rat.
(§2) By contrast, smilagenin and sarsasapogenin treatment in aged rats for 3 months restored the D1 and D2 receptor density (smilagenin 177±10.9; 217±45.7 fmol/mg protein; sarsasapogenin 172.0±44.0; 206.4±60.5 respectively).

[2] = system: rat mesencephalic dopaminergic neurones; assay: Treatment of dopaminergic neurones after MPP+ exposure (survival, neurites); type: cell-based; settings: MPP+ 2 μM
Text: Smilagenin and sarsasapogenin also reverse the neurodegeneration caused by exposure to the neurotoxin 1-methyl-4-phenylpyridinium (MPP^+) in rat mesencephalic dopaminergic neurones; a model of Parkinson's disease in vitro.
Glial cell line-derived neurotrophic factor (GDNF) and brain-derived neurotrophic factor (BDNF), molecules that are involved in neuronal growth, and 17β-oestradiol were used as positive controls. Treatment with smilagenin and sarsasapogenin produced a significant increase in the neuronal survival compared to neurones exposed to MPP^+ alone (Table 8).
Exposure to MPP^+ caused not only a significant decrease in dopaminergic number but also in the percentage of neurites.

[3] = system: rat primary cortical neurones; assay: Reversal of glutamate-induced neurodegeneration (LDH), treatment after glutamate exposure; type: cell-based; settings: LDH after 24 h, control = 100
Experimental: (§3) Neuronal cell survival was evaluated by measuring lactate dehydrogenase (LDH) activity released in the media 24 h after test compound treatment or glutamate+test compound exposure, using the CytoTox 96 non-radioactive kit and quantitated by measuring wavelength absorbance at 450 nm.
As above mentioned, exposure of rat primary cortical cultures to glutamate (100 μM; 10 min) caused an increase in lactate dehydrogenase (LDH) activity measured after 24 h, indicating a significant neurodegeneration.

aged Sprague-Dawley rats = assay: Y-maze learning and memory test in aged rats; type: in vivo, rat; settings: 18 mg kg−1 day−1 oral in food, 3 months
Experimental: as §1
A Y-maze apparatus was used for the learning and memory test. On the floor of each arm of the Y-maze is an array of copper rods to which electric current is applied whenever needed, with adjustable voltage. Each arm is 45 cm long and has a 15 W lamp at the end, which is turned on when needed. After 3 months drug administration, each rat was trained for 7 consecutive days, as follows. For each training session, the rat was put into one arm of the Y-maze, after two minutes rest, an electrical current was applied to the copper rods and the lamp of the clockwise arm was illuminated to indicate the non-stimulation area. If the rat went into that arm, one correct response was recorded, otherwise, one wrong response was recorded: This stimulation-response test was repeated 20 times each day, with a pause of 5 sec between each two consecutive tests. The number of correct responses following the twenty tests on the seventh day was used to express learning ability, (the higher the number the better the learning ability). The rats were then left resting for 30 days and the procedure was repeated once more. The number of correct responses of the 20 tests after the 30 day rest period was used to represent the memory ability

caspase-3 = assay: Glutamate induced caspase 3 activity in cortical neurones; type: cell-based, rat; settings: 300 nM for 6 h after glutamate 100 microM 10 min; glutamate alone 131
Experimental: The objective of this study was to examine the anti-apoptotic effect of smilagenin on the caspase-3 activity, a marker of apoptosis, in rat primary cortical cultures exposed to glutamate
Rat cortical neurones were cultured for 6 days. At day 6, glutamate (100 microM, 10 min) was added. Then the cultures were washed and medium was replaced with fresh medium containing smilagenin or vehicle control (DMSO, 0.25%) for 6 h. After 6 h treatment, apoptosis was evaluated by measuring caspase 3, activity. Caspase 3 activity was detected by the cleavage of p-nitroaniline from a colorimetric caspase-3 substrate, acetyl-Asp-Glu-Val-Asp p-nitroanilide. […] has a high absorbance at 405 nm. Relative caspase-3 activity was measured as optical density. In addition the relative activity of caspase-3 was standardised to protein concentration of the sample, which was also measured as an optical density (Du et al, J Neurochem., 69, 1382-1388, 1997; Sawada et al, Faseb J., 14, 1202-1214, 2000).

SOD-1 transgenic mice = assay: Survival and behaviour of SOD-1 mice (ALS model); type: in vivo; settings: SOD mouse
Text: Amyotrophic lateral sclerosis (ALS) is a progressive fatal neurodegenerative disorder that causes motor neurone degeneration, […], paralysis and death. The cause of this disease is heterogeneous: mutations in the Cu/Zn superoxide dismutase (SOD-1) gene is responsible for some forms of human ALS. Animal models of this disease include the SOD-1 transgenic mice over-expressing SOD-1 gene and the progressive motor neuropathy (pmn, a model of Charcot-Marie-Tooth) mice.

BDNF = BDNF levels in aged rats; type: in vivo, rat; settings: aged rats treated 3 months; aged untreated 1.205±0.219, young 1.647±0.277
Experimental: as §1

[4] = system: rat primary cortical neurones; assay: Prevention of glutamate-induced neurodegeneration (LDH release), pre-treatment; type: cell-based; settings: 30 nM, given 24 h before glutamate; LDH 24 h after glutamate; control = 100
Experimental: The objective of this study was to examine the effects of sarsasapogenin, episarsasapogenin cathylate, episarsasapogenin, epismilagenin and smilagenin on the survival of rat primary cortical neurones exposed to glutamate, which is known to induce neuro degeneration.
Rat cortical neurones were cultured for 10 days; at day 10 the medium was changed to a serum-free defined medium. On day 12, 24 hours before glutamate exposure, cultures were washed and medium was replaced with fresh medium containing positive control (β-oestradiol), test compounds (sarsasapogenin, episarsasapogenin cathylate, episarsasapogenin, epismilagenin and smilagenin) or vehicle control (DMSO, 0.25%) or diosgenin as negative control.
On day 13, cultures were exposed to glutamate. After the incubation period, the cultures were washed with and placed in fresh medium, supplemented with relevant compounds or vehicle to evaluate their protective effects, 24 h after glutamate exposure.
as §3

dopamine (D) 1 receptor = assay: Dopamine D1 receptor density in aged rats; type: in vivo, rat; settings: aged rats treated 3 months; aged untreated 129.2±36.8, young 157.5±33.2
Experimental: as §1, §2

Structure (SMILES): C[C@@H]1CC[C@@]2(OC1)O[C@H]1C[C@H]3[C@@H]4CC[C@@H]5C[C@@H](O)CC[C@]5(C)[C@H]4CC[C@]3(C)[C@H]1[C@@H]2C [smilagenin]
- Dopaminergic neurones after MPP+ exposure (survival), Mean ± s.e.m (%) [1]: 98 ± 4%
- D2 receptor density (dopamine (D) 2 receptor): 217±45.7 fmol/mg protein
- Percentage of neurites in dopaminergic neurones after MPP+ exposure, Mean ± s.e.m (%) ([2]; 0.03 nM, control 41 ± 4, MPP+ alone 27 ± 5): 41 ± 4%
- Dopaminergic neurones after MPP+ exposure (survival), Mean ± s.e.m (%) ([2]; treatment 0.03 nM, MPP+ alone 76 ± 4): 111 ± 6%
- Cortical neurones previously exposed to glutamate, Mean ± s.e.m (%) ([3]; 3 nM after glutamate 100 μM 10 min): 109 ± 6%
- Cortical neurones previously exposed to glutamate, Mean ± s.e.m (%) ([3]; 30 nM after glutamate 100 μM 10 min): 104 ± 1%
- Learning and memory ability (Y-maze) (aged Sprague-Dawley rats): restored the learning and memory ability
- Caspase activity (% of control) (caspase-3): 105 % of control
- Behavioural deficits (SOD-1 transgenic mice; oral administration): improve the behavioural deficits
- Lifespan (survival) (SOD-1 transgenic mice; oral administration (FIG. 5)): increase the lifespan
- BDNF levels (BDNF): 1.342±0.07 ng/g tissue
- Prevention of glutamate-induced neurodegeneration, Mean ± s.e.m (%) [4]: 91 ± 4%
- D1 receptor density (dopamine (D) 1 receptor): 177±10.9 fmol/mg protein
